System: exercising horses
Test: Simulated race test (SRT) on high-speed treadmill
Format: in vivo
Description: The purpose of this study was to determine the effects of intravenous administration of E-4021 on cardiorespiratory variables in exercising horses to facilitate the selection of a product dose for the control of hemorrhage associated with Exercise Induced Pulmonary Hemorrhage (EIPH). The formulation given was the propylene glycol formulation of Table 1.
Animals: The Rutgers University Institutional Animal Care and Facilities Committee approved all methods and procedures used in this experiment. Eight mature unfit Standardbred horses, 4 geldings and 4 mares were used in this study. The horses were healthy and acceptable for the study as determined by the study veterinarian. All horses underwent a physical examination to establish suitability for inclusion within the study. This included a physical examination and body weights. All of the horses were dewormed and vaccinated per standard veterinary practice. Animals were fed a maintenance ration of alfalfa/grass hay ad libitum and concentrate as needed. Water and mineral blocks were provided ad libitum. The horses were housed individually in 3×3 m stalls between 1600 to 0700 hours. They then performed their daily exercise followed by turnout in groups of 4 in 2 acres dry lot paddocks for ˜7 hrs/day.
General Study Design: There were four phases in this study detailed below. The horses performed conditioning exercise 4 d/week in a motorized equine exercise machine (Equi-cizer, Calgary, Canada) and heavy exercise 1 d/week on a high-speed treadmill (Sato I, Lexington Ky.) during Phase I. Heavy exercise prepared the horses for the later exercise tests performed during Phase Ib, Phase II, and Phase III of the experiment. The exercise tests were performed in the place of the heavy exercise training during those later three periods.
Phase II: This was the first part of the main study with test-article dosing of the horses (Weeks ≥12). This part of the experiment was conducted using a randomized semi-crossover design with each horse undergoing a control round within the first two weeks of the phase. Horses were randomly assigned to one of five treatments (CON; 50-45; 100-45; 50-90; 100-90). Control (CON) where no drug was administered; 50-45 where they were tested 45 minutes after receiving a dose of 50 mg; 100-45 where they were tested 45 minutes after receiving 100 mg of the test-article; 50-90 where they were tested 90 minutes after receiving a 50 mg dose; and 100-90 where they were tested 90 minutes after receiving a 100 mg dose. For this phase, the horses ran a simulated race test (SRT) every week on the heavy exercise days. Group A (n=4) horses ran their tests on Thursdays (mornings) and Group B (n=4) horses ran their tests on Fridays (mornings). All horses continued with light and moderate exercise as indicated for the other study days.
Phase III: This was the second part of the main study. This part of the experiment was conducted using a randomized crossover design where horses were initially assigned to one of four treatments (CON-B; 100-90B; 150-90; 200-90). Control (CON-B) where the horses received no drug; 100-90B where they were tested 90 minutes after receiving a 100 mg dose; 150-90 where they were tested 90 minutes after receiving a 150 mg dose; and 200-90 where they were tested 90 minutes after receiving a 200 mg dose. As with the other treatment phase the horses ran a weekly simulated race test (SRT) on the heavy exercise days. Group A (n=4) horses ran their tests on Thursdays (mornings) and Group B (n=4) horses ran their tests on Fridays (mornings).
Simulated Race Test (SRT): During the SRT, each horse ran at a speed calculated to correspond to 110% of the speed required to produce maximal oxygen uptake as measured during the GXTs performed during Phase Ib. […] Hemodynamic measurements were recorded, and blood samples were obtained to correspond with the end of the warm-up, at 1 minute and 2 minutes of the high-speed run, and at the end of the recovery period. […]

sodium 1-[6-chloro-4-(3,4-methylenedioxybenzyl)-aminoquinazolin-2-yl]piperidine-4-carboxylate sesquihydrate [E-4021]
Attenuation of increased exercise-related pulmonary vascular pressures (100 mg (approximately 500 kg horse), 90 minutes prior to intense exercise): greatest attenuation
Lower PA pressure after 2 min intense exercise (100 mg dose given at 90 min, Phase II and III): ~30 mm Hg
Magnitude of PA pressure, 100 mg vs. 150 mg vs. 200 mg trials (90 min before exercise, P>0.05, sesquihydrate): no differences
Lower PAP (Example 8, 100 mg at 90 minutes before exercise, propylene glycol formulation): ~30 mmHg
Mean pulmonary artery pressures compared to control (Phase III, 100, 150, 200 mg 90 min before, at 2 minutes of high intensity exercise, P<0.05): lower
Markers of aerobic and anaerobic performance (SRT, propylene glycol formulation): did not alter
Effect on plasma lactate concentration (SRTs, P>0.05): no effect
Effect on plasma calcium concentration (during the SRTs): no effect
Effect on plasma glucose concentration (during the SRTs): significant effect

— patent publication US20220387433A1, “TYPE V PHOSPHODIESTERASE INHIBITOR COMPOSITIONS, METHODS OF MAKING THEM AND METHODS OF USING THEM IN PREVENTING OR TREATING ELEVATED PULMONARY VASCULAR PRESSURE OR PULMONARY HEMORRHAGES” (American Regent, Inc., priority 2019, published 2022)
